{"source": "patent US7098343B2", "about": "“Compound” (Sterix, Limited, priority 2001, dated 2006)", "key": {"uterus": {"tested_on": "uterus", "conditions": "cited from earlier work"}, "steroid sulphatase [1]": {"biological_target": "T1, steroid sulphatase (Homo sapiens, UniProt P08842)", "T1 sequence (P08842 22-583)": "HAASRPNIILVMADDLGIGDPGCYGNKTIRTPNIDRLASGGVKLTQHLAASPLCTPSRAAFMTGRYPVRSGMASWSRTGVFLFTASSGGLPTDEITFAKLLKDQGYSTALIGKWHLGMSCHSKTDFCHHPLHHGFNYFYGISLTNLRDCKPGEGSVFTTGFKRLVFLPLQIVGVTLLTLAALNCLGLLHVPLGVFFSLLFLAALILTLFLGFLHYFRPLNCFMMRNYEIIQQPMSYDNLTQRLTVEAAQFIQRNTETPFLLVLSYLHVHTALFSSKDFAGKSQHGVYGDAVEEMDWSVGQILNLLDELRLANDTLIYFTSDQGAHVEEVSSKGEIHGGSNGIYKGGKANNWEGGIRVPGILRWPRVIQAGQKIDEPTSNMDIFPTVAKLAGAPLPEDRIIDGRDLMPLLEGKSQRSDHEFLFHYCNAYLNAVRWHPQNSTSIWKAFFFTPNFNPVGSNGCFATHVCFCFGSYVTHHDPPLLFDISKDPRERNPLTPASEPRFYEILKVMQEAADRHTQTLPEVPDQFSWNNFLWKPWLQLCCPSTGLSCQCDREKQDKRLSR", "conditions": "cited from earlier work"}, "aromatase": {"biological_target": "T2, aromatase (Homo sapiens, UniProt P11511)", "T2 construct": "Aromatase activity is measured in JEG3 choriocarcinoma cells, obtained from the ATCC; host or cells: JEG3 choriocarcinoma cells (intact monolayers)", "T2 sequence (P11511 1-503)": "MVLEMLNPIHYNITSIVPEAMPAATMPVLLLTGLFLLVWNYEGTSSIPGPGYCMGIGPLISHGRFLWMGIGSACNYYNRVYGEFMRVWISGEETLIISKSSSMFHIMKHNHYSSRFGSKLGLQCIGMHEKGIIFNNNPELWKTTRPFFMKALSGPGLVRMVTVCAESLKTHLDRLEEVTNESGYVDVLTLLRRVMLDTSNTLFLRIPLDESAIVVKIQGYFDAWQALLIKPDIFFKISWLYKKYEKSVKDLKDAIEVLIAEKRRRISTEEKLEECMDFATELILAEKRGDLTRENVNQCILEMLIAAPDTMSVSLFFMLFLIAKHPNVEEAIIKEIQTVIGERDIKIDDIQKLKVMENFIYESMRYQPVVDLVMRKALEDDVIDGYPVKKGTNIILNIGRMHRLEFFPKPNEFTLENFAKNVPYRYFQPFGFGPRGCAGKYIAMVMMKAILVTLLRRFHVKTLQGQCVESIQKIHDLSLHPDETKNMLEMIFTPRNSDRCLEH", "assay": "Aromatase activity in JEG3 choriocarcinoma cells (Protocol 6)", "assay_type": "cell-based"}, "E1-STS": {"biological_target": "T3, E1-STS (Homo sapiens, UniProt P08842)", "T3 construct": "host or cells: intact MCF-7 cells (endogenous enzyme)", "T3 sequence (P08842 22-583)": "T1 sequence (P08842 22-583)", "conditions": "0.1 nM; cited from earlier work"}, "rat liver E1-STS": {"biological_target": "T4, rat liver E1-STS (Rattus norvegicus, UniProt P15589)", "T4 construct": "host or cells: rat liver after oral or subcutaneous dosing", "T4 sequence (P15589 20-577)": "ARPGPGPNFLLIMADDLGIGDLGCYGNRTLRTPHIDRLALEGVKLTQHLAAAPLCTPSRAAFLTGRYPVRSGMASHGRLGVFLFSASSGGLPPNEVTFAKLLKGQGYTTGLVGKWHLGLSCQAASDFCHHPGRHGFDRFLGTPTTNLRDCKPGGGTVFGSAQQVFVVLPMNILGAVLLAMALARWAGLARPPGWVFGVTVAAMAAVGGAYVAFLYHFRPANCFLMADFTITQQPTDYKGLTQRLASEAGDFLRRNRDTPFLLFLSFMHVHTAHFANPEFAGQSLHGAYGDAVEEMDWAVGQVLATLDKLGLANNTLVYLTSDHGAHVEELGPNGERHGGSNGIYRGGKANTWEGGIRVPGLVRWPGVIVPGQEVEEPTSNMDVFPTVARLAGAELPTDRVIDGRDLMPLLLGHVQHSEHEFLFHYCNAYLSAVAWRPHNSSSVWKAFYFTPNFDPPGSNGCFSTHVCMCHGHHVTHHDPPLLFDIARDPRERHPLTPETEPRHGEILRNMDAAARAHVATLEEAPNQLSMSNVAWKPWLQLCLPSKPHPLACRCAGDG", "conditions": "administered orally or subcutaneously; cited from earlier work"}, "rat liver DHA-STS": {"biological_target": "T5, rat liver DHA-STS (Rattus norvegicus, UniProt P15589)", "T5 construct": "host or cells: rat liver after oral or subcutaneous dosing", "T5 sequence (P15589 20-577)": "T4 sequence (P15589 20-577)", "conditions": "administered orally or subcutaneously; cited from earlier work"}, "steroid sulphatase [2]": {"biological_target": "T1, steroid sulphatase", "assay": "Inhibition of steroid sulphatase activity in placental microsomes (Protocol 2)", "assay_type": "biochemical", "set-up": "host or cells: JEG3 choriocarcinoma cells (intact monolayers)", "conditions": "read-out: SULPHATASE % inhibition at 10 μM in placental microsomes", "protocol": "Inhibition of Steroid Sulphatase Activity in Placental Microsomes\nSulphatase-positive human placenta from normal term pregnancies are thoroughly minced with scissors and washed once with cold phosphate buffer (pH 7.4, 50 mM) then re-suspended in cold phosphate buffer (5 ml/g tissue). Homogenisation is accomplished with an Ultra-Turrax homogeniser, using three 10 second bursts separated by 2 minute cooling periods in ice. Nuclei and cell debris are removed by centrifuging (4° C.) at 2000 g for 30 minutes and portions (2 ml) of the supernatant are stored at […] The protein concentration of the supernatants is determined by the method of Bradford (Anal. Biochem., 72, 248-254 (1976)).\nIncubations (1 ml) are carried out using a protein concentration of […], substrate concentration of […] [6,7-3H]oestrone-3-sulphate (specific activity 60 Ci/mmol from New England Nuclear, Boston, Mass., U.S.A.) and an incubation time of 20 minutes at 37° C. […] A portion (2 ml) of the organic phase was removed, evaporated and the 3H and 14C content of the residue determined by scintillation spectrometry. The mass of oestrone-3-sulphate hydrolysed is calculated from the 3H counts obtained (corrected for the volumes of the medium and organic phase used, and for recovery of [14C]oestrone added) and the specific activity of the substrate."}}, "data": [{"compound": "COc1cc2c(cc1OS(N)(=O)=O)CC[C@@H]1[C@@H]2CC[C@]2(C)C(=O)CC[C@@H]12", "note": "[2-methoxyoestrone-3-O-sulphamate]", "values": [{"measurement": "oestrogenicity, in words", "setting": "uterus; rat, in vivo", "result": "devoid of oestrogenicity"}, {"measurement": "steroid sulphatase inhibition relative to EMATE, in words", "setting": "steroid sulphatase [1]", "result": "equipotent with EMATE"}]}, {"compound": "NS(=O)(=O)Oc1ccc(-c2cc(=O)c3cc(OS(N)(=O)=O)ccc3o2)cc1", "note": "[Compound H342F1]", "values": [{"measurement": "AROMATASE inhibition, in words", "setting": "aromatase", "result": "(No inhibition seen)"}]}, {"compound": "CC12CCC3c4ccc(OS(N)(=O)=O)cc4CCC3C1CCC2=O", "note": "(centres unmarked) [EMATE, oestrone-3-O-sulphamate]", "values": [{"measurement": "inhibition of E1-STS activity in intact MCF-7 cells", "setting": "E1-STS", "result": "more than 99%"}, {"measurement": "inhibition of rat liver E1-STS activity", "setting": "rat liver E1-STS", "result": 99, "unit": "%"}, {"measurement": "inhibition of rat liver DHA-STS activity", "setting": "rat liver DHA-STS", "result": 99, "unit": "%"}, {"measurement": "oral uterotrophic activity relative to estradiol", "setting": "uterus; rats, oral", "result": 100, "unit": "times"}]}, {"compound": "N#Cc1ccc(N(Cc2ccc(O)cc2)n2cnnc2)cc1", "note": "[STX265, 4-[(4-Hydroxylbenzyl)-[1,2,4]triazol-4-ylamino]benzonitrile]", "values": [{"measurement": "melting point", "result": "228 to 230", "unit": "°C"}]}, {"compound": "NS(=O)(=O)Oc1ccc(Cn2cncn2)cc1", "note": "[STX270, Sulfamic Acid 4-[1,2,4]triazol-1-ylmethylphenyl ester]", "values": [{"measurement": "inhibition at 10 µM", "setting": "steroid sulphatase [2]", "result": 14, "unit": "%"}]}, {"compound": "oestrone-3-N-sulphamate", "values": [{"measurement": "steroid sulphatase inhibition relative to EMATE, in words", "setting": "steroid sulphatase [1]", "result": "weaker non-time-dependent inactivators"}]}, {"compound": "oestrone-3-S-sulphamate", "values": [{"measurement": "steroid sulphatase inhibition relative to EMATE, in words", "setting": "steroid sulphatase [1]", "result": "weaker non-time-dependent inactivators"}]}]}
